Assay results published in patent US8992996B2, “Cosmetic” (Restorsea, LLC, priority 2012, dated 2015).

System: follicles (microcomedones)
Set-up: species or system human
Conditions: in vivo
Method: A study is conducted to determine the comedogenic potential of test materials in the form of day cream and eye cream with formulations disclosed above by assessing whether the test materials elicited microcomedones, after four weeks of repeated application under occlusive patch conditions, relative to a negative control (undosed patch). Acetylated Lanolin Alcohol served as a positive control material in order to validate the study. The tests are conducted during a 4 week study period. A total of 15 subjects, ranging in age from 22 to 45 years, are selected for the study. All 15 participants completed the study.

In the case of Acetylated Lanolin Alcohol, the “average ratio of microcomedones per follicle” value is reported as 6% and the “ratio of microcomedones to follicles compared with negative control (statistics)” value is reported as “significantly greater ratio than the negative control”.
